The record followed here is the Biogen ADME set (Fang et al. 2023).

In brackets after ≈: the same amount, converted by molar mass. Bounds are passed on as bounds.

For the data set the following is noted: for aqueous solubility: pH 6.8.

On to `CC(=O)N(c1ccc(C)cc1)c1nc(Cn2ccnc2)cs1`, for which the MDR1-MDCK efflux ratio came to 2.87; the intrinsic clearance, human liver microsomes came to 1.92 L/h/kg; the intrinsic clearance, rat liver microsomes stood at 12.6 L/h/kg; the aqueous solubility came out at 0.0437 mg/mL (≈ 140 µM).

As to `c1sc(NCC2CCCO2)nc1C12CC3CC(CC(C3)C1)C2` (configuration not stated), the MDR1-MDCK efflux ratio came to 0.537; the fraction unbound, human plasma came to 0.0008; the intrinsic clearance, human liver microsomes is 2.74 L/h/kg.

With `CCOc1ccc(Nc2nc(-c3c(C)nc4ccccn34)cs2)cc1`, the MDR1-MDCK efflux ratio was determined as 0.134; the intrinsic clearance, human liver microsomes came to 9.56 L/h/kg; the intrinsic clearance, rat liver microsomes worked out at 27.1 L/h/kg; the aqueous solubility was determined as 0.045 mg/mL (≈ 128 µM).

Turning to `Cc1cc(F)ccc1C1C(=O)NCCN1C(=O)c1ccc2nccn2c1` (configuration not stated), the MDR1-MDCK efflux ratio was 8.42; the fraction unbound, human plasma was determined as 0.604; the fraction unbound, rat plasma turned out to be 0.893; the intrinsic clearance, human liver microsomes worked out at 0.36 L/h/kg. The intrinsic clearance, rat liver microsomes was 1.66 L/h/kg and the aqueous solubility was 0.0622 mg/mL (≈ 177 µM).

Turning to `Cc1noc(-c2ccc(NC(=O)Cc3ccccc3)cc2)n1`, the MDR1-MDCK efflux ratio was 0.573; the intrinsic clearance, human liver microsomes was 0.469 L/h/kg; the intrinsic clearance, rat liver microsomes was determined as 3.43 L/h/kg; the aqueous solubility came out at 0.00794 mg/mL (≈ 27.1 µM).

As for `COc1ccccc1C(=O)CSc1nncn1C1CC1`, the MDR1-MDCK efflux ratio was 1.3; the intrinsic clearance, human liver microsomes is 1.48 L/h/kg; the intrinsic clearance, rat liver microsomes turned out to be 27.8 L/h/kg.

Take `O=C(CCc1ccc(Cl)cc1)N1CCCC(c2n[nH]cc2-c2cccc(F)c2)C1` (configuration not stated): the MDR1-MDCK efflux ratio came to 5.67; the intrinsic clearance, human liver microsomes was 55.8 L/h/kg; the intrinsic clearance, rat liver microsomes is 195 L/h/kg; the aqueous solubility came out at 0.0039 mg/mL (≈ 9.47 µM).

Consider `COC(=O)c1ccc(NC(=O)N(C)Cc2ccccc2CN2CCCC2)cc1`, for which the MDR1-MDCK efflux ratio turned out to be 7.85; the intrinsic clearance, human liver microsomes is 1.09 L/h/kg; the intrinsic clearance, rat liver microsomes stood at 16.6 L/h/kg; the aqueous solubility worked out at 0.0408 mg/mL (≈ 107 µM).

Turning to `Cc1ccc(CC(=O)NCc2cccc(C(=O)Nc3ccccc3)c2)cc1`, the MDR1-MDCK efflux ratio was 1.52 and the aqueous solubility was determined as 0.00038 mg/mL (≈ 1.06 µM).

Consider `O=C(Cn1nc2n(c1=O)-c1ccccc1C1=NCCN12)N1CCCc2ccccc21`, for which the MDR1-MDCK efflux ratio was determined as 7.27; the intrinsic clearance, human liver microsomes came out at 15.4 L/h/kg; the intrinsic clearance, rat liver microsomes came out at 100 L/h/kg; the aqueous solubility was 0.00163 mg/mL (≈ 4.07 µM).

Consider `CC(C)COc1cc(F)cc(-c2cncc(C(=O)N3CCCC3)n2)c1`, for which the MDR1-MDCK efflux ratio came to 0.442 and the aqueous solubility was 0.0007 mg/mL (≈ 2.04 µM).

Take `CN(C)CCNc1c2c(c(C#N)c3nc4ccccc4n13)CCCC2`: the MDR1-MDCK efflux ratio amounted to 2.57; the intrinsic clearance, human liver microsomes is 1.44 L/h/kg; the intrinsic clearance, rat liver microsomes was found to be 16.2 L/h/kg; the aqueous solubility was determined as 0.036 mg/mL (≈ 108 µM).

`NCCOc1cccc(C(F)(F)F)n1` displayed an aqueous solubility of 0.0218 mg/mL (≈ 105 µM).

`Cc1ccc(C2=NC3(CCN(Cc4ccc(F)cc4)CC3)NC2=O)cc1`: the MDR1-MDCK efflux ratio was determined as 0.541; the intrinsic clearance, human liver microsomes amounted to 0.67 L/h/kg; the intrinsic clearance, rat liver microsomes is 40.2 L/h/kg; the aqueous solubility stood at 0.0127 mg/mL (≈ 36.2 µM).

`c1ccc(-c2nccc(NCc3nnc4n3CCCCC4)n2)cc1` registered an intrinsic clearance, human liver microsomes of 4.73 L/h/kg and an intrinsic clearance, rat liver microsomes of 26.9 L/h/kg.

On to `Cc1noc(NCc2ccc(F)cc2C)n1`, for which the MDR1-MDCK efflux ratio stood at 0.589; the intrinsic clearance, human liver microsomes was ≤ 0.284 L/h/kg; the intrinsic clearance, rat liver microsomes is 4.1 L/h/kg.

With `CC(=O)NCC(=O)N1[C@@H]2CC[C@H]1c1ccc(Nc3ncc(C(F)(F)F)c(NC4CCC4)n3)cc12`, the MDR1-MDCK efflux ratio amounted to 29.1; the intrinsic clearance, human liver microsomes worked out at 1.25 L/h/kg; the intrinsic clearance, rat liver microsomes came to 5.45 L/h/kg.

Turning to `CCOc1ccc(C(=O)Cn2c(=O)n(-c3ccc(F)cc3)c3nc(C)nc(C(N)=O)c32)cc1`, the MDR1-MDCK efflux ratio was 0.926 and the aqueous solubility was 0.00039 mg/mL (≈ 0.868 µM).

In the case of `Cc1ccc(Cn2ccn(-c3ccc(F)c(F)c3)c(=O)c2=O)cc1`, the MDR1-MDCK efflux ratio worked out at 0.671 and the aqueous solubility was 0.00035 mg/mL (≈ 1.07 µM).

Consider `C=CC(=O)Nc1cccc(Nc2nc(Nc3ccc(OCCOC)cc3)ncc2F)c1`, for which the MDR1-MDCK efflux ratio came out at 3.94; the intrinsic clearance, human liver microsomes came to 1.92 L/h/kg; the intrinsic clearance, rat liver microsomes is 23.4 L/h/kg; the aqueous solubility is 0.0038 mg/mL (≈ 8.97 µM).

For the compound `Cc1ccc(CCNC(=O)N2CC(C)(C)OC(C)(C)C2)cn1`, the MDR1-MDCK efflux ratio stood at 22.9; the intrinsic clearance, human liver microsomes was 0.395 L/h/kg; the intrinsic clearance, rat liver microsomes was found to be 4.58 L/h/kg; the aqueous solubility was determined as 0.0411 mg/mL (≈ 135 µM).

On to `CC(=O)N(C)[C@H]1CC2(CCN(C(=O)COc3ccc(F)cc3F)CC2)OC[C@]1(C)O`, for which the MDR1-MDCK efflux ratio was determined as 14.9; the intrinsic clearance, human liver microsomes is ≤ 0.284 L/h/kg; the intrinsic clearance, rat liver microsomes is 0.926 L/h/kg.

Take `CC(C)c1nnc(NCc2cc(F)cc(F)c2)o1`: the MDR1-MDCK efflux ratio came out at 0.786; the intrinsic clearance, human liver microsomes was ≤ 0.284 L/h/kg; the intrinsic clearance, rat liver microsomes worked out at 6.67 L/h/kg.

Consider `Cc1cccc(O[C@H]2CN(Cc3ccc(OCCCO)cc3)C[C@@H]2O)c1`, for which the MDR1-MDCK efflux ratio amounted to 2.24; the intrinsic clearance, human liver microsomes was 4.26 L/h/kg; the intrinsic clearance, rat liver microsomes was determined as 42.1 L/h/kg; the aqueous solubility was determined as 0.062 mg/mL (≈ 173 µM).

On to `O=C(c1cccc(N2CCNC2=O)c1)N1CCc2ccccc2C1`, for which the MDR1-MDCK efflux ratio stood at 5.72; the intrinsic clearance, human liver microsomes is 0.77 L/h/kg; the intrinsic clearance, rat liver microsomes was 19.3 L/h/kg; the aqueous solubility turned out to be 0.0423 mg/mL (≈ 132 µM).

In the case of `Cc1cccnc1CNc1ccc(C#N)cc1F`, the MDR1-MDCK efflux ratio came out at 0.524; the intrinsic clearance, human liver microsomes was 1.97 L/h/kg; the intrinsic clearance, rat liver microsomes worked out at 9.67 L/h/kg; the aqueous solubility is 0.036 mg/mL (≈ 149 µM).

Turning to `CCc1cccc(NC(=O)COC(=O)c2cnc(C)cn2)c1`, the aqueous solubility was 0.0561 mg/mL (≈ 187 µM).

Turning to `CN(C(=O)c1cc(N2CCNC2=O)ccc1F)C1CCNC1` (configuration not stated), the MDR1-MDCK efflux ratio is 0.835; the fraction unbound, human plasma amounted to 0.769; the intrinsic clearance, human liver microsomes is ≤ 0.284 L/h/kg.

`Cc1cccc(-c2nc(C34CCC(C(N)=O)(CC3)CC4)[nH]c2-c2ccc3c(c2)OCO3)n1` yielded a fraction unbound, human plasma of 0.105 and a fraction unbound, rat plasma of 0.0162.

Turning to `CNCc1cc(N(C)C)nc(C2CCCN2C(=O)CCc2c[nH]c3ccccc23)n1` (configuration not stated), the MDR1-MDCK efflux ratio was found to be 35.1; the intrinsic clearance, human liver microsomes was 3.04 L/h/kg; the intrinsic clearance, rat liver microsomes came to 23.4 L/h/kg.

In the case of `CCCn1ncc(CN2CCC(c3cc4cccnc4[nH]3)CC2)c1C`, the MDR1-MDCK efflux ratio amounted to 8.86; the intrinsic clearance, human liver microsomes turned out to be 2.51 L/h/kg; the intrinsic clearance, rat liver microsomes stood at 12.1 L/h/kg.

In the case of `CCN(CC)Cc1cnc(NC(=O)c2ccccc2)s1`, the intrinsic clearance, human liver microsomes is ≤ 0.284 L/h/kg and the intrinsic clearance, rat liver microsomes worked out at 11.5 L/h/kg.

In the case of `Cc1cc(CN(C)Cc2cscn2)no1`, the MDR1-MDCK efflux ratio was determined as 0.537; the intrinsic clearance, human liver microsomes was ≤ 0.284 L/h/kg; the intrinsic clearance, rat liver microsomes came to 1.5 L/h/kg; the aqueous solubility stood at 0.0286 mg/mL (≈ 128 µM).

In the case of `Cc1cc(C)n(-c2cccc(NC(=O)c3ccc(F)c(F)c3)c2)n1`, the MDR1-MDCK efflux ratio turned out to be 0.649; the intrinsic clearance, human liver microsomes was 1.88 L/h/kg; the intrinsic clearance, rat liver microsomes worked out at 21.2 L/h/kg; the aqueous solubility stood at 0.00161 mg/mL (≈ 4.92 µM).

With `O=C(Cc1cn2ccccc2n1)N1CCC(n2c(=O)[nH]c3ccccc32)CC1`, the MDR1-MDCK efflux ratio is 24.3; the intrinsic clearance, human liver microsomes is 2.03 L/h/kg; the intrinsic clearance, rat liver microsomes is 23.3 L/h/kg.

For the compound `O=C1NC2(CCC2)C(=O)N1Cc1ccon1`, the intrinsic clearance, human liver microsomes was ≤ 0.284 L/h/kg and the intrinsic clearance, rat liver microsomes was ≤ 0.64 L/h/kg.

As for `Cc1cc(C(=O)Nc2cccc3ncccc23)on1`, the MDR1-MDCK efflux ratio was 0.559; the intrinsic clearance, human liver microsomes is ≤ 0.284 L/h/kg; the intrinsic clearance, rat liver microsomes turned out to be 0.664 L/h/kg; the aqueous solubility was determined as 0.0454 mg/mL (≈ 179 µM).

Take `O=C(Cc1ccc2c(c1)CCC2)Nc1nc2ccccc2o1`: the MDR1-MDCK efflux ratio was 0.499; the intrinsic clearance, human liver microsomes was found to be 6.78 L/h/kg; the intrinsic clearance, rat liver microsomes was found to be 92.6 L/h/kg; the aqueous solubility was 0.00363 mg/mL (≈ 12.4 µM).

With `CCN(CC)S(=O)(=O)c1ccc2c(c1)CCN2CC(=O)NCc1ccccc1F`, the MDR1-MDCK efflux ratio came to 9.92; the intrinsic clearance, human liver microsomes is 20.2 L/h/kg; the intrinsic clearance, rat liver microsomes is 108 L/h/kg; the aqueous solubility worked out at 0.0437 mg/mL (≈ 104 µM).

Turning to `CN(C)S(=O)(=O)Nc1ccc(-n2ncc3ccccc32)cc1`, the MDR1-MDCK efflux ratio came out at 0.562; the intrinsic clearance, human liver microsomes was found to be 1.29 L/h/kg; the intrinsic clearance, rat liver microsomes is 57.5 L/h/kg; the aqueous solubility came to 0.0389 mg/mL (≈ 123 µM).

As for `CCc1nc(CNc2ccc(C#N)nc2)cs1`, the MDR1-MDCK efflux ratio was 0.556; the intrinsic clearance, human liver microsomes was ≤ 0.284 L/h/kg; the intrinsic clearance, rat liver microsomes is 6.52 L/h/kg.

As for `Cc1cc(C(=O)N2CCC(C(=O)c3ccnn3C)CC2)sc1C`, the MDR1-MDCK efflux ratio is 0.723; the intrinsic clearance, human liver microsomes is 2.2 L/h/kg; the intrinsic clearance, rat liver microsomes is 57.4 L/h/kg.

As for `COc1cc(CC(=O)Nc2ccccc2F)ccc1C`, the aqueous solubility came out at 0.026 mg/mL (≈ 95.1 µM).

`Cc1nnc(-c2ccc(N3CCC(Oc4ccccc4C(F)(F)F)CC3)nn2)s1`: the MDR1-MDCK efflux ratio worked out at 0.485; the fraction unbound, human plasma was found to be 0.00124; the intrinsic clearance, human liver microsomes was determined as 0.865 L/h/kg.

In the case of `CC1CCN(C(=O)c2n[nH]c3ccccc23)CC1`, the MDR1-MDCK efflux ratio is 0.561; the intrinsic clearance, human liver microsomes worked out at 1.28 L/h/kg; the intrinsic clearance, rat liver microsomes was 54.9 L/h/kg; the aqueous solubility turned out to be 0.0264 mg/mL (≈ 109 µM).

For the compound `COc1cc(OC)cc(-n2c(S)nnc2COc2cccc3ccccc23)c1`, the MDR1-MDCK efflux ratio worked out at 1.65 and the aqueous solubility came out at 0.00028 mg/mL (≈ 0.712 µM).

`O=C(NCCc1ccc2c(c1)OCO2)N1CCc2sccc2C1`: the MDR1-MDCK efflux ratio is 0.646; the intrinsic clearance, human liver microsomes came to 9.83 L/h/kg; the intrinsic clearance, rat liver microsomes amounted to 74.7 L/h/kg; the aqueous solubility worked out at 0.0456 mg/mL (≈ 138 µM).

In the case of `COc1ccccc1NC(=O)CSc1nc(C(C)(C)C)nc2ccccc12`, the MDR1-MDCK efflux ratio was 1.26 and the aqueous solubility worked out at 0.00027 mg/mL (≈ 0.708 µM).

As usually defined, the aqueous solubility is how much of the substance goes into solution per volume. A high value points to a readily soluble substance.
